According to the NIST ThermoML archive (doi:10.1016/j.fluid.2015.07.012):

Assay: xn = mol fraction of the nth substance listed
Details: Liquid; for viscosity: Capillary tube (Ostwald / Ubbelohde) method; for mass density: Vibrating tube method

CO [methanol] + O
Details	mass density, 10000 kPa [kg/m3]	mass density, 20000 kPa [kg/m3]	mass density, 30000 kPa [kg/m3]	mass density, 40000 kPa [kg/m3]	viscosity, 10000 kPa [mPa·s]	viscosity, 20000 kPa [mPa·s]	viscosity, 30000 kPa [mPa·s]	viscosity, 40000 kPa [mPa·s]
350.7 K, x1 = 0.1	945.55	949.82	954.11	958.39	0.448	0.454	0.458	0.473
350.7 K, x1 = 0.2	917.41	921.49	927.03	931.54	0.503	0.514	0.526	0.543
350.7 K, x1 = 0.3	889.97	895.56	901.14	906.05	0.514	0.528	0.542	0.558
350.7 K, x1 = 0.4	865.13	870.55	876.99	882.71	0.512	0.529	0.544	0.565
350.7 K, x1 = 0.6	819.84	827.75	835.46	842.38	0.449	0.47	0.494	0.519
350.7 K, x1 = 0.8	780.91	789.25	797.6	805.96	0.379	0.4	0.416	0.443
350.7 K, x1 = 1	–	–	–	–	0.298	0.313	0.331	0.351
373.2 K, x1 = 0.1	928.71	932.78	939.53	943.52	0.33	0.337	0.339	0.347
373.2 K, x1 = 0.2	900.41	904.78	911.46	914.74	0.358	0.368	0.372	0.382
373.2 K, x1 = 0.3	870.61	877.31	883.51	889.33	0.364	0.378	0.385	0.398
373.2 K, x1 = 0.4	845.4	851.97	858.91	864.81	0.36	0.375	0.382	0.399
373.2 K, x1 = 0.6	799.33	807.98	817.6	823.64	0.324	0.342	0.353	0.368
373.2 K, x1 = 0.8	758.8	770.24	780.53	789.08	0.276	0.294	0.307	0.326
373.2 K, x1 = 1	725.29	737.85	748.83	758.66	0.227	0.25	0.259	0.275
476.2 K, x1 = 0.1	822.65	831.4	838.61	845.82	0.141	0.144	0.148	0.151
476.2 K, x1 = 0.2	781.47	792.25	802.47	810.27	0.14	0.143	0.15	0.152
476.2 K, x1 = 0.3	746.74	760.72	772.18	780.67	0.136	0.144	0.146	0.152
476.2 K, x1 = 0.4	714.67	730.97	744.11	754.89	0.129	0.138	0.144	0.149
476.2 K, x1 = 0.6	664.45	685.36	703.08	715.13	0.115	0.123	0.131	0.14
476.2 K, x1 = 0.8	617.54	647.18	668.6	683.43	0.101	0.113	0.122	0.129
476.2 K, x1 = 1	576.84	612.56	636.82	655.67	0.088	0.1	0.109	0.116

CCCO [propan-1-ol] + O
Details	mass density, 10000 kPa [kg/m3]	mass density, 20000 kPa [kg/m3]	mass density, 30000 kPa [kg/m3]	mass density, 40000 kPa [kg/m3]	viscosity, 10000 kPa [mPa·s]	viscosity, 20000 kPa [mPa·s]	viscosity, 30000 kPa [mPa·s]	viscosity, 40000 kPa [mPa·s]
350.7 K, x1 = 0.1	919.5	924.38	929.09	934.42	0.591	0.611	0.63	0.635
350.7 K, x1 = 0.2	878.37	883.66	889.66	895.4	0.723	0.763	0.81	0.826
350.7 K, x1 = 0.3	847.8	854.62	861.08	866.79	0.77	0.814	0.85	0.861
350.7 K, x1 = 0.4	826	833.03	840.74	847.26	0.758	0.81	0.86	0.883
350.7 K, x1 = 0.6	796.1	804.64	812.37	819.69	0.737	0.774	0.848	0.88
350.7 K, x1 = 0.8	776.11	786.05	794.61	802.32	0.689	0.736	0.827	0.864
350.7 K, x1 = 1	763.09	772.75	781.33	789.02	0.694	0.753	0.823	0.869
373.2 K, x1 = 0.1	900.32	905.78	911.46	916.96	0.439	0.441	0.455	0.463
373.2 K, x1 = 0.2	857.3	863.27	869.79	875.69	0.504	0.513	0.533	0.547
373.2 K, x1 = 0.3	827.05	834.28	842.03	848.33	0.531	0.55	0.577	0.599
373.2 K, x1 = 0.4	804.56	813.43	820.4	827.89	0.514	0.542	0.57	0.6
373.2 K, x1 = 0.6	774.56	784.28	792.47	800.74	0.51	0.541	0.576	0.611
373.2 K, x1 = 0.8	755.44	765.59	774.18	782.84	0.49	0.531	0.572	0.614
373.2 K, x1 = 1	741.54	752.5	762.28	770.94	0.488	0.533	0.581	0.613
476.2 K, x1 = 0.1	790.18	799.73	810.27	818.93	0.161	0.171	0.175	0.179
476.2 K, x1 = 0.2	739.33	752.08	764.81	775.35	0.162	0.172	0.181	0.189
476.2 K, x1 = 0.3	702.79	718.75	733.87	745.92	0.157	0.17	0.183	0.195
476.2 K, x1 = 0.4	678.7	697.03	713.61	726.38	0.153	0.17	0.189	0.21
476.2 K, x1 = 0.6	646.98	667.25	686.56	700.42	0.145	0.161	0.178	0.195
476.2 K, x1 = 0.8	627.55	651.81	672.08	686.68	0.139	0.157	0.173	0.188
476.2 K, x1 = 1	612.56	640.86	662.44	677.8	0.137	0.157	0.176	0.192
